ChEMBL document CHEMBL1156027, “Identification of methysticin as a potent and non-toxic NF-kappaB inhibitor from kava, potentially responsible for kava's chemopreventive activity” (Bioorg Med Chem Lett, 2009)
≈ marks a conversion by molar mass, not a printed value. Calls of active or inactive are those of the source. The calls are words filed in the database; no cut-off is given here.

Tests used:
[1] = Hepatotoxicity against mouse Hepa-1c1c7 cells after 48 hrs by celltiter blue assay; type: toxicity, cell-based
[2] = Inhibition of TNF-alpha-induced NF-kappaB expressed in human A549 cells treated 1 hr after TNFalpha challenge measured after 6 hrs by luciferase reporter gene assay; type: cell-based
A549 [3] = experiment: Inhibition of NF-kappaB expressed in human A549 cells assessed as suppression of TNF-alpha-induced COX2 level at 25 uM after 7 hrs by Western blotting; type: cell-based
A549 [4] = experiment: […] against human A549 cells after 48 hrs by celltiter blue assay; type: toxicity, cell-based; settings: a549, 48 h
CCRF-CEM = experiment: Toxicity against human CCRF-CEM cells after 48 hrs by celltiter blue assay; type: cell-based
A549 [5] = experiment: Inhibition of NF-kappaB expressed in human A549 cells assessed as suppression of TNF-alpha-induced p65 level at 25 uM after 7 hrs by Western blotting; type: cell-based
A549 [6] = experiment: Inhibition of NF-kappaB expressed in human A549 cells assessed as suppression of TNF-alpha-induced IKKalpha level at 25 uM after 7 hrs by Western blotting; type: cell-based
HL-60 = experiment: Toxicity against human HL60 cells after 48 hrs by celltiter blue assay; type: cell-based; settings: hl-60, 48 h
A549 [7] = experiment: Inhibition of NF-kappaB expressed in human A549 cells assessed as prevention of TNF-alpha-induced IkappaBalpha degradation level at 25 uM after 7 hrs by Western blotting; type: cell-based

| Compound | IC50 at 48 h [1] | IC50 [2] | other results |
| --- | --- | --- | --- |
| COC1=CC(=O)O[C@@H](/C=C/c2ccccc2)C1 [KAVAIN] | 166 µg/mL (≈ 721 µM) | 32 µg/mL (≈ 139 µM) |  |
| COc1ccc(/C=C/C(=O)c2c(O)cc(OC)cc2OC)cc1 [FLAVOKAWAIN A] | 13.8 µg/mL (≈ 43.9 µM) | 11.6 µg/mL (≈ 36.9 µM) |  |
| COC1=CC(=O)O[C@@H](CCc2ccccc2)C1 [DIHYDROKAWAIN] | 175 µg/mL (≈ 753 µM) | 60 µg/mL (≈ 258 µM) |  |
| COc1cc(O)c(C(=O)/C=C/c2ccccc2)c(OC)c1 [FLAVOKAWAIN B] | 6.6 µg/mL (≈ 23.2 µM) | 8 µg/mL (≈ 28.1 µM) |  |
| COC1=CC(=O)O[C@@H](CCc2ccc3c(c2)OCO3)C1 [DIHYDROMETHYSTICIN] | 313 µg/mL (≈ 1130 µM) | 20 µg/mL (≈ 72.4 µM) |  |
| COc1cc(/C=C/c2ccccc2)oc(=O)c1 [DESMETHOXYYANGONIN] | 173 µg/mL (≈ 758 µM) | 33 µg/mL (≈ 145 µM) |  |
| COC1=CC(=O)O[C@@H](/C=C/c2ccc3c(c2)OCO3)C1 [METHYSTICIN] | 392 µg/mL (≈ 1430 µM) | 0.19 µg/mL (≈ 0.693 µM) | inhibition (A549 [3]): Active; Activity (A549 [4]): Non-toxic; Activity (CCRF-CEM): Non-toxic; inhibition (A549 [5]): Active; inhibition (A549 [6]): Active; Activity (HL-60): Non-toxic; inhibition (A549 [7]): Active |
| COc1cc(O)c(C(=O)/C=C/c2ccc(O)cc2)c(OC)c1 [FLAVOKAWAIN C] | 9.8 µg/mL (≈ 32.6 µM) | 8.1 µg/mL (≈ 27 µM) |  |
